According to patent publication US9815796B2 (Merck Sharp & Dohme Corp., priority 2013, dated 2017):
Read-outs that look alike come from different tables or passages of the source.

What was measured:
Rhesus PDE2A3 = Rhesus PDE2A3 (Macaca mulatta, UniProt B3VTJ2); experiment: PDE2 fluorescence polarization (IMAP FP) inhibition assay, rhesus enzyme; format: biochemical, rhesus macaque
How it was run: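 Rhesus PDE2A3 came from lysate of transiently transfected AD293 cells, diluted to give 20% substrate conversion. Substrate was 50 nM FAM-cAMP with 1 uM cGMP activator in Tris pH 7.2/MgCl2 buffer, run 60 min at room temperature over 10-point 3-fold dilutions in 1% DMSO. Read-out was IMAP fluorescence polarization (mP) after ≥1 h binding.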

human PDE2A1 = human PDE2A1 (Homo sapiens (Human), UniProt O00408); experiment: IMAP FP PDE selectivity panel, human PDE2A1; format: biochemical
How it was run: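 GST-tagged human PDE2A1 expressed in insect cells, run at room temperature for 60 min with 50 nM FAM-cAMP containing 1000 nM cGMP, pH 7.2 Tris/MgCl2 buffer. IMAP fluorescence polarization read after binding step.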

[1] = Rhesus PDE2, Lab A, read-out: Rhesus PDE2 Ki (nM) - Lab A
[2] = Rhesus PDE2, Lab B, read-out: Rhesus PDE2 Ki (nM) - Lab B
[3] = Human PDE2, Lab B, read-out: Human PDE2 Ki (nM) - Lab B
[4] = Human PDE2, Lab A, read-out: Human PDE2 Ki (nM) - Lab A

Sequence of human PDE2A1 (O00408 other isoform, or with tags, fused parts or gaps): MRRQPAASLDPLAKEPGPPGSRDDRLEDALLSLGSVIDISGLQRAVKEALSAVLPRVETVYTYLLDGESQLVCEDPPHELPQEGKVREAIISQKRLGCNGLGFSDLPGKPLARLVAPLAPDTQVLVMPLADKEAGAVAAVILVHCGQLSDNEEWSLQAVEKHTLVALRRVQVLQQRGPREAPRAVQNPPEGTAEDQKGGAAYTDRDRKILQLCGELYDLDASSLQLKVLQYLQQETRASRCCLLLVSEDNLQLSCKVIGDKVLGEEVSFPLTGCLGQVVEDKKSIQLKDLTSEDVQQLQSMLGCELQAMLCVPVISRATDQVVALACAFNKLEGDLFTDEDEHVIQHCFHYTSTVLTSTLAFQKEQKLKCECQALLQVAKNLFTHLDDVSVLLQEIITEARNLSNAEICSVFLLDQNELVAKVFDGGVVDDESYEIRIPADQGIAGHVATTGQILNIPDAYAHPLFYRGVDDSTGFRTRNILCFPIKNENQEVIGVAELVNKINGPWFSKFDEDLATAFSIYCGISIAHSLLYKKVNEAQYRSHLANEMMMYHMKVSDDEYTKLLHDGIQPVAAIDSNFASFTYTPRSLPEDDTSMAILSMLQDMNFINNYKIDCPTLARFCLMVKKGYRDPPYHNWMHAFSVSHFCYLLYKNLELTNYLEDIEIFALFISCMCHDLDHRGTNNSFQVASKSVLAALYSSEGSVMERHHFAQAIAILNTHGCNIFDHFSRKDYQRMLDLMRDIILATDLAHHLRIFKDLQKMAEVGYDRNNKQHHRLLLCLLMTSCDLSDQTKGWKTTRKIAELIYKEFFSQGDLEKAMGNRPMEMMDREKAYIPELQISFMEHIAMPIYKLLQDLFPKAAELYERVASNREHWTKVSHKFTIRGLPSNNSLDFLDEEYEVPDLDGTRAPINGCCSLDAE
Sequence of Rhesus PDE2A3 (B3VTJ2 1-941): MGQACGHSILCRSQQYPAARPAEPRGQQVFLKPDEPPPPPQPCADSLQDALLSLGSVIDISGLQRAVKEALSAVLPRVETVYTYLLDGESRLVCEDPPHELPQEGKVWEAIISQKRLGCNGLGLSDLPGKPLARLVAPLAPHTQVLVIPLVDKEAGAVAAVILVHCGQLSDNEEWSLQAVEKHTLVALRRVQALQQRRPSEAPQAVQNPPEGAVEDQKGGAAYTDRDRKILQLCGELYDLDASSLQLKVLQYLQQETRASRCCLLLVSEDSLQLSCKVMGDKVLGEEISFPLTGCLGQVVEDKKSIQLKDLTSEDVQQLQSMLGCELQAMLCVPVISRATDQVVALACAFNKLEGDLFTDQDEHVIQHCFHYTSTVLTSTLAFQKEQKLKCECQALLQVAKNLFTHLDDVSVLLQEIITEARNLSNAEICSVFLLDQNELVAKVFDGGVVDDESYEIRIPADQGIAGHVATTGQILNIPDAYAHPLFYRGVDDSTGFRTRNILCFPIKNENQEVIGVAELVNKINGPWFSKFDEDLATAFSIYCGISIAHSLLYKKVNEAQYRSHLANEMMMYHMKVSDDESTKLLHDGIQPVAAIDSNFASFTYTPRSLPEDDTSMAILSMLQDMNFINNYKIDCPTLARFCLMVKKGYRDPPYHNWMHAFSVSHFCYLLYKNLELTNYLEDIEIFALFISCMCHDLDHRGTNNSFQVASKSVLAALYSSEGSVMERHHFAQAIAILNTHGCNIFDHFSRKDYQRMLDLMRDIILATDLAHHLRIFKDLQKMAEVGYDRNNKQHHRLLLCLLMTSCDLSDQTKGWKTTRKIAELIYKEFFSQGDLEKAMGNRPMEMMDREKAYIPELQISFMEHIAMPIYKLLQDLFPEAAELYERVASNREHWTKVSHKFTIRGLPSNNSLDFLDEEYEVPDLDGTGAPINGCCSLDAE

Row | Ki (Rhesus PDE2A3; [1]) [nM] | Ki (Rhesus PDE2A3; [2]) [nM] | Ki (human PDE2A1; [3]) [nM] | Ki (human PDE2A1; [4]) [nM] | Structure (SMILES)
1 | 24 | 36 | 33 | – | C[C@@H](NC(=O)c1cc(=O)[nH]c(-c2ccccc2)n1)c1ccc(N(C)C)cc1 [Example 374, N-{(1R)-1-[4-(dimethylamino)phenyl]ethyl}-6-oxo-2-phenyl-1,6-dihydropyrimidine-4-carboxamide]
2 | 88 | – | – | 60 | CC(C)(NC(=O)c1cc(=O)[nH]c(-c2ccccc2)n1)c1ccc(OC(F)(F)F)c(F)c1 [Example 161, N-{1-[3-fluoro-4-(trifluoromethoxy)phenyl]-1-methylethyl}-6-oxo-2-phenyl-1,6-dihydropyrimidine-4-carboxamide]
3 | 19 | – | – | 15 | Cc1nc(C(=O)NC2(c3ccc(SC(F)(F)F)cc3)CC2)cc(=O)[nH]1 [Example 35, 2-Methyl-6-oxo-N-(1-(4-((trifluoromethyl)thio)phenyl)cyclopropyl)-1,6-dihydroy primidine-4-carboxamide]
4 | 40 | – | – | 20 | C[C@@H](NC(=O)c1cc(=O)[nH]c(C2CC2)n1)c1ccc2ccccc2c1 [Example 224, 2-cyclopropyl-N-[(1R)-1-naphthalen-2-ylethyl]-6-oxo-1,6-dihydropyrimidine-4-carboxamide]
5 | 1.4 | 1.3 | 1.3 | – | CC(C)[C@@H](NC(=O)c1cc(=O)[nH]c(-c2ncccn2)n1)c1ccc(SC(F)(F)F)c(F)c1 [Example 245, N-[(1R)-1-{3-fluoro-4-[(trifluoromethyl)sulfanyl]phenyl}-2-methylpropyl]-6-oxo-1,6-dihydro-2,2′-bipyrimidine-4-carboxamide]
6 | – | 27 | 27 | – | COc1ccc(C(C)(C)c2nc(C(=O)N[C@@H](c3ccc(SC(F)(F)F)c(F)c3)C(C)C)cc(=O)[nH]2)cc1 [Example 491, N-[(1R)-1-{3-fluoro-4-[(trifluoromethyl)sulfanoyl]phenyl}-2-methylpropyl]-2-[1-(4-methoxyphenyl)-1-methylethyl]-6-oxo-1,6-dihydropyrimidine-4-carboxamide]
7 | 54 | – | 38 | 43 | CCc1nc(C(=O)N[C@H](C)c2ccc(C(F)(F)F)cc2)cc(=O)[nH]1 [Example 134, 2-ethyl-6-oxo-N-{(1R)-1-[4-(trifluoromethyl)phenyl]ethyl}-1,6-dihydropyrimidine-4-carboxamide]
8 | – | 51 | 60 | – | C[C@@H](NC(=O)c1cc(=O)[nH]c(C2CC2)n1)c1cc(F)c(C(F)(F)F)cc1F [Example 440, 2-cyclopropyl-N-{(1R)-1-[2,5-difluoro-4-(trifluoromethyl)phenyl]ethyl}-6-oxo-1,6-dihydropyrimidine-4-carboxamide]
9 | 28 | – | – | 32 | O=C(NC1(c2ccc(SC(F)(F)F)cc2)CCC1)c1cc(=O)[nH]c(-c2ccccc2)n1 [Example 171, 6-oxo-2-phenyl-N-(1-{4-[(trifluoromethyl)sulfanyl]phenyl}cyclobutyl)-1,6-dihydropyrimidine-4-carboxamide]
10 | – | 105 | 126 | – | N#CC(NC(=O)c1cc(=O)[nH]c(-c2ccccc2)n1)c1ccc(C(F)(F)F)cc1 (stereo not drawn) [Example 413, N-{cyano[4-(trifluoromethyl)phenyl]methyl}-6-oxo-2-phenyl-1,6-dihydropyrimidine-4-carboxamide]
11 | 4 | – | – | 2.2 | CC[C@@H](NC(=O)c1cc(=O)[nH]c(-c2ccccc2)n1)c1ccc(OC(F)(F)F)cc1 [Example 179, 6-oxo-2-phenyl-N-{(1R)-1-[4-(trifluoromethoxy)phenyl]propyl}-1,6-dihydropyrimidine-4-carboxamide]
12 | – | 2.1 | 1.9 | – | COc1ccc(Cc2nc(C(=O)N[C@@H](c3ccc(S(F)(F)(F)(F)F)cc3)C(C)C)cc(=O)[nH]2)cc1F [Example 513, 2-(3-fluoro-4-methoxybenzyl)-N-{(1R)-2-methyl-1-[4-(pentafluoro-λ^6-sulfanyl)phenyl]propyl}-6-oxo-1,6-dihydropyrimidine-4-carboxamide]
